In test [1] the target is T1, Polyunsaturated fatty acid 5-lipoxygenase (Rattus norvegicus, UniProt P12527).
T1 sequence (P12527 whole entry): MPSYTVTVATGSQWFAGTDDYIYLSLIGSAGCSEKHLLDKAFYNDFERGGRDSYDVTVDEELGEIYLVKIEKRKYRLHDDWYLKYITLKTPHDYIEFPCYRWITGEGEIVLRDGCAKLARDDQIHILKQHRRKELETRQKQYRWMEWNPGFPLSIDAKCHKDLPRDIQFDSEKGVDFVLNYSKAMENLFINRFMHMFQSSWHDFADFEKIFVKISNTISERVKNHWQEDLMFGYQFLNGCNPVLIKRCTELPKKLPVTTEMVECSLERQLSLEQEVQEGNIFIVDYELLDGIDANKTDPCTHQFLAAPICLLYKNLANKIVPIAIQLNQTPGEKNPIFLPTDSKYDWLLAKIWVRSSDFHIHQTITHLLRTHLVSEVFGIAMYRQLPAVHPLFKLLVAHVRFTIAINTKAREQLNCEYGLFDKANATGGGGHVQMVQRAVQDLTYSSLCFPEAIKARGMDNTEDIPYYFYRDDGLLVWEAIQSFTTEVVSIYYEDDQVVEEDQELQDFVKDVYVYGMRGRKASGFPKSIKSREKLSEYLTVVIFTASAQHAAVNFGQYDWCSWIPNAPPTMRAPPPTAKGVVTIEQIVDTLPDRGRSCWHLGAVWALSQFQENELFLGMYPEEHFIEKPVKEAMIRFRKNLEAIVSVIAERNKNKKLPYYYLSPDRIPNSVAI
Nature of the test: In vitro inhibitory activity against 5-lipoxygenase was determined.

The target in test [2] is T2, Cyclooxygenase (Rattus norvegicus, UniProt P35355+Q63921).
T2 sequence (P35355 whole entry): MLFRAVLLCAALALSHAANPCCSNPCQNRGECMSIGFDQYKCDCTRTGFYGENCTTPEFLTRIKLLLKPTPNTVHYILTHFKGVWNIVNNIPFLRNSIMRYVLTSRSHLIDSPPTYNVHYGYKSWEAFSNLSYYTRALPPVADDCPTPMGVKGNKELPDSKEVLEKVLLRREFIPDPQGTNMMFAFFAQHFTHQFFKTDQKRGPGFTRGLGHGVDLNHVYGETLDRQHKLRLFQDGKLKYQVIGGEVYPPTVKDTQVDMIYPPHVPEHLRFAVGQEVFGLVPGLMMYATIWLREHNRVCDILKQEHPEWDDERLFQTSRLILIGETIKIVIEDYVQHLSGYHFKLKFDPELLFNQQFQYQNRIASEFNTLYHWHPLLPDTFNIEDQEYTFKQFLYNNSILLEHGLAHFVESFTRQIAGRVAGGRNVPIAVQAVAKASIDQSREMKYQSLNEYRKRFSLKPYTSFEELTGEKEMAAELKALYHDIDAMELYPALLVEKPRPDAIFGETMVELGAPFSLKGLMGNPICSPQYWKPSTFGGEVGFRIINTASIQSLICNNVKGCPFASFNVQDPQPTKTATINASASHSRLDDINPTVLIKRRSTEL
T2 sequence (Q63921 whole entry): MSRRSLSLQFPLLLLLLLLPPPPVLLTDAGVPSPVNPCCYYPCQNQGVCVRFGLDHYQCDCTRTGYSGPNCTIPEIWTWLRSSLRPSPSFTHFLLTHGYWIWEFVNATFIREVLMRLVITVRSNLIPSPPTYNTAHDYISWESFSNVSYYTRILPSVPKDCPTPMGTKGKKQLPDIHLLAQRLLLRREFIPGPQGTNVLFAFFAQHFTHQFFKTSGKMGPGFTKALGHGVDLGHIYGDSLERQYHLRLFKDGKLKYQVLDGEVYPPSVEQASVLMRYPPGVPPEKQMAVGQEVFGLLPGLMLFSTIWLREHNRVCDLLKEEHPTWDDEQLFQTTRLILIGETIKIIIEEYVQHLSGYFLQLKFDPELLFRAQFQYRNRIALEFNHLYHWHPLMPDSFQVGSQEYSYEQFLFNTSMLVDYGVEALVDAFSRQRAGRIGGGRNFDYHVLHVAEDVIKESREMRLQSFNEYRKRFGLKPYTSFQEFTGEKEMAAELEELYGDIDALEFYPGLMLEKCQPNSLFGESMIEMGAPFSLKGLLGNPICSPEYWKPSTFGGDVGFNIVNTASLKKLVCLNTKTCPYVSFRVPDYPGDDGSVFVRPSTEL
Nature of the test: In vitro inhibitory activity against Cyclooxygenase was determined. It is filed as protein assay.

Test [3] addresses T3, Polyunsaturated fatty acid 5-lipoxygenase (Rattus norvegicus) (UniProt P12527).
T3 sequence (whole entry): T1 sequence (P12527 whole entry)
The test can be described thus: In vitro inhibitory activity against 5-lipoxygenase was determined at 16 uM.

Test [4] has as its target Cyclooxygenase (Rattus norvegicus) (UniProt P35355+Q63921). Nature of the test: In vitro inhibitory activity against Cyclooxygenase was determined at 16 uM. The class given is protein assay.

Consider `FC(F)(F)c1cccc(Nc2ncccc2-c2nnc(S)o2)c1`, for which the 50% inhibitory concentration (IC50) in test [1] turned out to be 990 nM; in test [2], 190 nM.
In the case of `Cc1ccc(Cl)c(Nc2ccccc2-c2nnc(S)o2)c1Cl`, in test [2], the IC50 came to 700 nM.
In test [2], `FC(F)(F)c1cccc(Nc2ccccc2-c2n[nH]c(=S)o2)c1` yielded a half-maximal inhibitory concentration (IC50) of 270 nM.
In test [2], `FC(F)(F)c1cccc(Nc2ccccc2-c2n[nH]c(=S)s2)c1` returned an IC50 of 850 nM.
As for `Cc1ccc(Cl)c(Nc2ccccc2-c2nnc(S)s2)c1Cl`, the IC50 in test [2] is 1750 nM.
Turning to `Oc1nnc(-c2ccccc2Nc2cccc(C(F)(F)F)c2)s1`, the values for the inhibition in test [3] and in test [4] were 100% and below 40%, respectively.
Take `Cc1ccc(Cl)c(Nc2ccccc2-c2nnc(O)o2)c1Cl`: the inhibition in test [3] and in test [4] was below 40% each time.
For `Cc1cccc(Nc2ccccc2-c2nnc(O)o2)c1C`, the inhibition in test [3] and in test [4] was below 40% in each case.
